In the NIST ThermoML archive (doi:10.1021/je800290k):
Values joined by “and” are separate entries in the source; they are usually repeats but may differ in a detail not shown here. Equal entries are not always repeated.

Details: Liquid, Ebulliometric method (Recirculating still)

CNCCCN [N-methyl-1,3-diaminopropane]
Details	vapor or sublimation pressure [kPa]
326.81 K	3.46
331.62 K	4.47
337.36 K	5.97
343.91 K	7.97
353.78 K	12.48
365.76 K	20.47
372.77 K	27.96
383.53 K	39.97
397.99 K	64.98
404.7 K	79.98
412.5 K	101.27

CN(CCO)CCO [N-methyldiethanolamine]
Details	vapor or sublimation pressure [kPa]
409.69 K	2.48
413.43 K	2.98
416.72 K	3.48
421.96 K	4.48
426.65 K	5.48
430.48 K	6.48
435.5 K	7.98

O [water]
Details	vapor or sublimation pressure
311.63 K	6.78 kPa
313.24 K	7.38 kPa
314.99 K	8.11 kPa
323.11 K	12.28 kPa
323.14 K	12.28 kPa
323.15 K	12.27 kPa
325.47 K	13.78 kPa
325.61 K	13.8 kPa
332.76 K	19.84 kPa
332.85 K	19.84 kPa
333.13 K	19.58 kPa
333.17 K	19.88 kPa and 19.88 kPa
333.18 K	19.88 kPa and 19.88 kPa
333.19 K	19.87 kPa
340.41 K	27.6 kPa
340.44 K	27.58 kPa
340.47 K	27.6 kPa
348.8 K	39.83 kPa
348.84 K	39.83 kPa
349.91 K	41.4 kPa
349.94 K	41.39 kPa
349.97 K	41.4 kPa
353.14 K	47.18 kPa and 47.19 kPa
353.15 K	47.18 kPa
357.02 K	55.17 kPa
357.07 K	55.18 kPa
357.08 K	55.17 kPa
358.87 K	59.88 kPa
358.92 K	59.88 kPa
362.55 K	68.92 kPa
362.59 K	68.92 kPa
362.8 K	69 kPa
362.83 K	69 kPa and 68.98 kPa
362.89 K	69.83 kPa
362.93 K	69.83 kPa
367.48 K	82.79 kPa
367.49 K	82.79 kPa
367.67 K	82.79 kPa
367.69 K	82.79 kPa and 82.78 kPa
371.67 K	96.51 kPa
371.7 K	96.51 kPa
371.9 K	96.47 kPa
371.91 K	96.58 kPa
372.69 K	99.28 kPa
372.86 K	100.59 kPa
372.89 K	100.59 kPa
373.16 K	100.98 kPa and 100.98 kPa

NCCO [2-aminoethan-1-ol]
Details	vapor or sublimation pressure [kPa]
357.46 K	2.98
362.99 K	3.98
369.33 K	5.48
374.29 K	6.98
378.41 K	8.47
384.07 K	10.97
391.14 K	14.96
398.01 K	19.97
403.43 K	24.97
408.19 K	29.97
415.78 K	39.98
415.81 K	39.95
424.61 K	54.95
429.44 K	64.95
431.61 K	69.95
435.61 K	79.95
